PMC11172375, “Preclinical Evaluation of Biodistribution and Toxicity of [^211At]PSMA-5 in Mice and Primates for the Targeted Alpha Therapy against Prostate Cancer” (International Journal of Molecular Sciences, 2024)

Tests used:
[1] = Blood chemistry analysis in monkeys; assay type: in vivo, cynomolgus monkeys; conditions: for ALB / ALP / ALT / AMY / AST / BUN / CK / CRE / K / LDH / Na / TBIL / TCHO / TG / TP / γ-GTP / GLU: monkeys, 9 MBq/kg i.v.
Protocol: (§1) [^211At]PSMA-5 was administered intravenously to 25 mice, and its biodistribution was evaluated. For the toxicity study, three doses of [^211At]PSMA-5 (5, 12, and 35 MBq/kg, single dose) or saline were intravenously administered to 10 mice/group for the main evaluation point on day 1, and 5-mice/group for recovery evaluation on day 14, adhering to the ICH M3 (R2) guidelines. The dosage was determined based on our previous study using [^211At]NaAt. The monkeys were monitored for 24 h post-administration of [^211At]PSMA-5 (9 MBq/kg).
(§2) Monkeys were anesthetized with intramuscular administration of ketamine (10 mg/kg) and xylazine (0.5 mg/kg) with isoflurane inhalation anesthesia. Planar and Single Photon Emission Computed Tomography (SPECT) imaging was performed in monkeys using a γ-camera system (E-cam, Siemens, Erlangen, Germany) immediately after administration to 1 h and at 3 and 24 h post-administration of [^211At]PSMA-5 (9 MBq/kg), targeting the X-rays emitted from the daughter nuclide ^211Po (energy window: 79 keV ± 20%). Subsequent image analysis was performed by setting the regions of interest using Osirix MD software (Version 13, Pixmeo SARL, Bernex, Switzerland) and PMOD software (Version 3.903, PMOD Technologies, Fällanden, Switzerland). Blood samples were obtained pre-administration and at 1, 3, and 24 h post-administration, followed by euthanasia via bloodletting at 24 h.
A blood cell counter was used for the measurements (CB-1010; ARKRAY, Inc., Kyoto, Japan). Red blood cell count (RBC), hemoglobin concentration (Hb), hematocrit (Ht), white blood cell count (WBC), platelet count (platelet), lymphocytes (%Lymph), monocytes (%Mon), and granulocytes (%Gra) were calculated. Plasma was analyzed using a dry clinical chemistry analyzer (Spotchem D-00 QR D-02; ARKRAY, Inc., Kyoto, Japan). The levels of aspartate aminotransferase (AST), alanine aminotransferase (ALT), gamma-glutamyl transpeptidase (γ-GTP), lactate dehydrogenase (LDH), alkaline phosphatase (ALP), creatine kinase (CK), amylase (AMY), total bilirubin (TBIL), creatinine (CRE), urea nitrogen (BUN), glucose (GLU), total protein (TP), albumin (ALB), total cholesterol (TCHO), triglyceride (TG), and electrolytes (Na, K, and Cl) were measured.

[2] = Necropsy and histological evaluation in mice; assay type: in vivo, ICR mice
Protocol: as §1
(§3) The brain, salivary gland, thyroid, heart, lungs, liver, kidney, adrenal gland, pancreas, spleen, thymus, stomach, small intestine, large intestine, bladder, prostate, and testes were collected on days 1 or 14 in mice and at 24 h in monkeys. Additionally, the pituitary gland, tongue, trachea, esophagus, mesenteric lymph nodes, epididymis, seminal vesicles, skin, mammary glands, spinal cord, bone, bone marrow (femur), eyeball, and optic nerve were collected from the mice. After fixation, paraffin sections were prepared and stained with hematoxylin and eosin (HE). All the specimens were evaluated by an expert in toxic pathology using an integrated fluorescence microscope (BZ-X810; Keyence Corporation. Osaka, Japan). In mice, the brain, salivary glands, heart, lungs, liver, gallbladder, spleen, kidneys, and testes were weighed according to ICH S4 guideline.

[3] = Histological evaluation in monkeys; assay type: in vivo, cynomolgus monkeys; conditions: 9 MBq/kg, 24 h
Protocol: as §1, §3

[4] = Biodistribution in ICR mice; assay type: in vivo
Protocol: as §1, §2
Urine and feces samples were collected at each time point. Following euthanasia, the brain, thyroid gland, salivary gland, lungs, heart, liver, kidney, spleen, pancreas, stomach, small intestine, large intestine, bladder, testes, and prostate tissues were collected. Organ weights and radiation doses were measured using a γ-counter (model: 2480Wizard2, PerkinElmer) and γ-camera system (E-cam) by appropriate cross-calibration.

[5] = design: method as in PMID 35553387; conditions: LNCaP xenograft mice, 1MBq (53MBq/kg), 3 and 6 weeks after administration; cited from earlier work
[6] = TLC metabolite analysis of blood samples, monkeys; assay type: in vivo; conditions: cynomolgus monkeys, plasma
Protocol: as §2
The blood samples were centrifuged at 3000 rpm for 5 min, and the resulting plasma was mixed with twice the volume of ethanol, then agitated vigorously. The supernatants were analyzed by thin-layer chromatography (TLC).

[7] = 24 hrs, might be affected by hemolysis
[8] = mice, 12 MBq/kg, regarded as spontaneous lesion

Q: What does the source list for O=C(O)CC[C@H](NC(=O)N[C@@H](CCCCNC(=O)[C@@H](Cc1ccc2ccccc2c1)NC(=O)c1ccc(CNC(=O)[C@@H](CCC(=O)O)NC(=O)[C@@H](CCC(=O)O)NC(=O)Cc2ccc([211At])cc2)cc1)C(=O)O)C(=O)O [[^211At]PSMA-5]?
A: LDH levels ([1]; cynomolgus monkeys, 9 MBq/kg): elevated in both monkeys; renal function or electrolyte levels ([1]; cynomolgus monkeys, 9 MBq/kg): No significant changes; monkeys with a mild increase in amylase ([1]; cynomolgus monkeys, 9 MBq/kg, 24 h post-administration): 1/2; ALB ([1]; 1 hr): 2.5 ± 0.4 g/dL; ALP ([1]; 1 hr): 835 ± 173.6 IU/L; ALT ([1]; 1 hr): 11.3 ± 1.8 IU/L; AMY ([1]; 1 hr): 291 ± 62.2 IU/L; AST ([1]; 1 hr): 13.3 ± 4.6 IU/L; BUN ([1]; 1 hr): 24.8 ± 2.5 mg/dL; CK ([1]; 1 hr): 496 ± 321.4 IU/L; CRE ([1]; 1 hr): 0.5 ± 0.2 mg/dL; K ([1]; 1 hr): 4.3 ± 0.2 mEq/L; LDH ([1]; 1 hr): 231 ± 27.9 IU/L; Na ([1]; 1 hr): 140 ± 2.8 mEq/L; TBIL ([1]; 1 hr): 0.3 ± 0.1 mg/dL; TCHO ([1]; 1 hr): 84 ± 24 mg/dL; TG ([1]; 1 hr): 25.5 ± 0.7 mg/dL; TP ([1]; 1 hr): 3.6 ± 0.4 g/dL; γ-GTP ([1]; 1 hr): 61.8 ± 8.1 IU/L; GLU ([1]; 1 hr, suggests contamination from the infusion fluid): 309 ± 177 mg/dL; ALB ([1]; 3 hrs): 2.5 ± 0.1 g/dL; ALP ([1]; 3 hrs): 890 ± 47.4 IU/L; ALT ([1]; 3 hrs): 12 ± 2.8 IU/L; AMY ([1]; 3 hrs): 342 ± 38.2 IU/L; BUN ([1]; 3 hrs): 27 ± 1.4 mg/dL; CK ([1]; 3 hrs): 522 ± 101.8 IU/L; CRE ([1]; 3 hrs): 0.75 ± 0.21 mg/dL; GLU ([1]; 3 hrs): 62 ± 56.6 mg/dL; K ([1]; 3 hrs): 4.9 ± 0.4 mEq/L; LDH ([1]; 3 hrs): 255 ± 4.9 IU/L; Na ([1]; 3 hrs): 143 ± 0 mEq/L; TBIL ([1]; 3 hrs): 0.3 ± 0.0 mg/dL; TCHO ([1]; 3 hrs): 91 ± 17 mg/dL; TG ([1]; 3 hrs): 28 ± 4.2 mg/dL; TP ([1]; 3 hrs): 3.7 ± 0.1 g/dL; γ-GTP ([1]; 3 hrs): 66.5 ± 19.1 IU/L; ALB ([1]; 24 hrs): 2.7 ± 0 g/dL; ALP ([1]; 24 hrs): 768 ± 34.4 IU/L; ALT ([1]; 24 hrs): 24.8 ± 21 IU/L; AMY ([1]; 24 hrs): 565 ± 197 IU/L; BUN ([1]; 24 hrs): 35.7 ± 2.4 mg/dL; CK ([1]; 24 hrs): 713 ± 293.9 IU/L; CRE ([1]; 24 hrs): 0.7 ± 0.0 mg/dL; GLU ([1]; 24 hrs): 77.7 ± 1.4 mg/dL; K ([1]; 24 hrs): 4 ± 0.2 mEq/L; Na ([1]; 24 hrs): 146 ± 3.1 mEq/L; TBIL ([1]; 24 hrs): 0.7 ± 0.3 mg/dL; TCHO ([1]; 24 hrs): 90.7 ± 0.5 mg/dL; TG ([1]; 24 hrs): 28.7 ± 4.7 mg/dL; TP ([1]; 24 hrs): 4.2 ± 0.4 g/dL; γ-GTP ([1]; 24 hrs): 65 ± 17.9 IU/L; AST [1, 7]: 38.7 ± 19.3 IU/L; LDH [1, 7]: 471 ± 30.2 IU/L; gross findings during necropsy ([2]; expert evaluation): no gross abnormalities beyond spontaneous lesions; histological changes in the thyroid, testes, and kidneys compared to the control group ([2]; mice, 5, 12 and 35 MBq/kg): no significant changes; single-cell necrosis/apoptosis of crypt epithelial cells in pyloric glands of the stomach, duodenum, jejunum ([2]; mice, 5-35 MBq/kg, day 1): dose-dependent increase; tingible body macrophages in white pulp of the spleen and lymphoid follicles of mesenteric lymph nodes ([2]; mice, 5-35 MBq/kg, day 1): dose-dependent increase; incidence of increased single-cell necrosis/apoptosis in striatal epithelial and serous cells of the salivary gland ([2]; mice, 12 MBq/kg, day 1): 1/10; incidence of atrophy of the seminal vesicles [2, 8]: 1/10; incidence of intraperitoneal mass [2, 8]: 1/10; incidence of cortical lymphopenia in the thymus ([2]; mice, 35 MBq/kg, day 1): 2/10; incidence of decrease in bone marrow cells ([2]; mice, 35 MBq/kg, day 1): 9/10; incidence of increased single-cell necrosis/apoptosis in striatal epithelial and serous cells of the salivary gland ([2]; mice, 35 MBq/kg, day 1): 7/10; incidence of mild localized hepatocellular necrosis in the liver ([2]; mice, 35 MBq/kg, considered a spontaneously occurring lesion): 1/10; degenerative changes in salivary glands, stomach, duodenum, jejunum, spleen, mesenteric lymph nodes, bone marrow, thymus ([2]; mice, day 14 post-administration): not observed; administration-related pathology in brain, salivary glands, thyroid, heart, liver, gallbladder, pancreas, rectum, kidney, bladder, adrenal glands, prostate [3]: No pathological abnormalities; crypt epithelial cells of the small and large (cecum) intestines [3]: Mild single-cell necrosis/apoptosis; tingible body macrophages in white pulp of the spleen, intraparotid and intrapulmonary lymph nodes [3]: mild increase; time of peak kidney uptake post-administration ([4]; ICR mice, 5 MBq/kg i.v.): 6 h; time of peak thyroid gland uptake ([4]; ICR mice, 5 MBq/kg i.v.): 3 h; cumulative fecal excretion ([4]; ICR mice, 5 MBq/kg i.v., 6 h): 3.03 ± 1.90 %ID; cumulative urinary excretion ([4]; ICR mice, 5 MBq/kg i.v., 6 h): 4.85 ± 1.76 %ID; cumulative fecal excretion ([4]; ICR mice, 5 MBq/kg i.v., 24 h): 24.07 ± 8.54 %ID; cumulative urinary excretion ([4]; ICR mice, 5 MBq/kg i.v., 24 h): 18.89 ± 4.57 %ID; uptake in the thyroid ([4]; mice, 3 h post-administration): 51 %ID/g; kidney histology [5]: regenerated tubules were observed; metabolites in blood samples (TLC) [6]: no metabolites were detected
